The values below come from patent publication US20250041429A1, “COMPOUND HAVING BTK PROTEIN DEGRADATION ACTIVITY, AND MEDICAL USES THEREOF” (UBIX THERAPEUTICS, INC., priority 2021, published 2025).

The assay deals with T1, BTK protein (Homo sapiens, UniProt Q06187).
T1 construct: endogenous in cells; host or cells: TMD-8 cells
Kind of assay: Measurement of BTK protein degradation ability in TMD-8 cells (Western blotting). The format is cell-based. The note with it: harvested after 24 hours; for BTK degradation (%) 1 nM: compound 1 nM; for BTK degradation (%) 10 nM: compound 10 nM; for BTK degradation (%) 100 nM: compound 100 nM. Put shortly: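 BTK levels were measured by immunoblotting of equal-protein RIPA lysates, normalized to GAPDH or β-actin, with chemiluminescent or infrared detection. Lysates came from TMD-8 cells exposed to compound for 24 h at final concentrations of 0.1, 1, 10 μM or 0.0001–0.1 μM, against a DMSO control.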
On the technique in general: In western blotting, separated proteins are transferred to a membrane and probed.

T1 sequence (Q06187 whole entry): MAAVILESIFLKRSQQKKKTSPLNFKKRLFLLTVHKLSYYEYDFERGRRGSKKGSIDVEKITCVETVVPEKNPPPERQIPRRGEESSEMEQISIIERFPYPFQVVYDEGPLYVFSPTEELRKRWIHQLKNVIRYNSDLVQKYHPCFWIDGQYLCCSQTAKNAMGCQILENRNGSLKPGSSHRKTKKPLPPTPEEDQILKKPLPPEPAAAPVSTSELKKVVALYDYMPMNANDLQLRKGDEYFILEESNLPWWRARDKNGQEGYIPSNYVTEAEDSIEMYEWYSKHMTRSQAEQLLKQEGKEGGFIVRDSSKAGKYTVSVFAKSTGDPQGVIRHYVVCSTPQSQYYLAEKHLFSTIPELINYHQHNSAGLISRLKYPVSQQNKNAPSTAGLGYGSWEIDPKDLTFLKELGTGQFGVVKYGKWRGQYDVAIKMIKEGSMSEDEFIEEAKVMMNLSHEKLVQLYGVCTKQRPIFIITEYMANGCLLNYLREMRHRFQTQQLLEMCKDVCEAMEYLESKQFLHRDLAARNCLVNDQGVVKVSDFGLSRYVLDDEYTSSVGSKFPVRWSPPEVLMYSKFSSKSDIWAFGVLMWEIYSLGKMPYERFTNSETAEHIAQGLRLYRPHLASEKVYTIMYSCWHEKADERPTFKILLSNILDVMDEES

Regarding `COc1ccc(C(=O)N2CCC(CN3CCN(c4ccc(Nc5nccc(-c6cc(F)cc(NC(=O)N7CC(OC(C)C)C7)c6C)n5)cc4)CC3)CC2)cc1N1CCC(=O)NC1=O` [Example 90, N-(3-(2-((4-(4-((1-(3-(2,4-dioxotetrahydropyrimidin-1 (2H)-yl)-4-methoxybenzoyl)piperidin-4-yl)methyl)piperazin-1-yl)phenyl)amino)pyrimidin-4-yl)-5-fluoro-2-methylphenyl)-3-isopropoxyazetidine-1-carboxamide], the “BTK degradation (%) 1 nM” value was found to be 4%, the “BTK degradation (%) 10 nM” value stood at 10% and the “BTK degradation (%) 100 nM” value came to 37.5%.

Consider `Cc1cc(-c2ccnc(Nc3cnn(C4CCN(CC5CCN(C(=O)c6cccc(NC7CCC(=O)NC7=O)c6)CC5)CC4)c3)n2)ccc1CNC(=O)N1CC(OC(C)C)C1` (stereo not drawn) [Example 91, N-(4-(2-((1-(1-((1-(3-((2,6-dioxopiperidin-3-yl)amino)benzoyl)piperidin-4-yl)methyl)piperidin-4-yl)-1H-pyrazol-4-yl)amino)pyrimidin-4-yl)-2-methylbenzyl)-3-isopropoxyazetidine-1-carboxamide], for which the “BTK degradation (%) 1 nM” value came out at 4.5%, the “BTK degradation (%) 10 nM” value stood at 68.5% and the “BTK degradation (%) 100 nM” value was 95.0%.

As to `Cc1cc(-c2ccnc(Nc3cnn(C4CCN(CC5CN(C(=O)c6cccc(NC7CCC(=O)NC7=O)c6)C5)CC4)c3)n2)ccc1CNC(=O)N1CC(OC(C)C)C1` (stereo not drawn) [Example 92, N-(4-(2-((1-(1-((1-(3-((2,6-dioxopiperidin-3-yl)amino)benzoyl)azetidin-3-yl)methyl)piperidin-4-yl)-1H-pyrazol-4-yl)amino)pyrimidin-4-yl)-2-methylbenzyl)-3-isopropoxyazetidine-1-carboxamide], the “BTK degradation (%) 1 nM” value was found to be 7.0%, the “BTK degradation (%) 10 nM” value is on record as 33.5% and the “BTK degradation (%) 100 nM” value is on record as 89.0%.

With `Cc1cc(-c2ccnc(Nc3ccc(N4CCN(CC5CCN(C(=O)c6cccc(NC7CCC(=O)NC7=O)c6)CC5)CC4)cc3)n2)ccc1CNC(=O)c1cnn(C(C)C)c1` (stereo not drawn) [Example 93, N-(4-(2-((4-(4-((1-(3-((2,6-dioxopiperidin-3-yl)amino)benzoyl)piperidin-4-yl)methyl)piperazin-1-yl)phenyl)amino)pyrimidin-4-yl)-2-methylbenzyl)-1-isopropyl-1H-pyrazole-4-carboxamide], the “BTK degradation (%) 1 nM” value is 62.0%, the “BTK degradation (%) 10 nM” value was 94.5% and the “BTK degradation (%) 100 nM” value was 98.5%.

As for `Cc1cc(-c2ccnc(Nc3ccc(N4CCN(CC5CN(C(=O)c6cccc(NC7CCC(=O)NC7=O)c6)C5)CC4)cc3)n2)ccc1CNC(=O)c1cnn(C(C)C)c1` (stereo not drawn) [Example 94, N-(4-(2-((4-(4-((1-(3-((2,6-dioxopiperidin-3-yl)amino)benzoyl)azetidin-3-yl)methyl)piperazin-1-yl)phenyl)amino)pyrimidin-4-yl)-2-methylbenzyl)-1-isopropyl-1H-pyrazole-4-carboxamide], the “BTK degradation (%) 1 nM” value worked out at 59.5%, the “BTK degradation (%) 10 nM” value is given as 93.5% and the “BTK degradation (%) 100 nM” value is 98.5%.

On to `Cc1cc(-c2ccnc(Nc3ccc(N4CCN(CC5CCN(C(=O)c6cccc(NC7CCC(=O)NC7=O)c6)CC5)CC4)cc3)n2)ccc1CNC(=O)c1cnn(C(C)(C)C)c1` (stereo not drawn) [Example 95, 1-(tert-butyl)-N-(4-(2-((4-(4-((1-(3-((2,6-dioxopiperidin-3-yl)amino)benzoyl)piperidin-4-yl)methyl)piperazin-1-yl)phenyl)amino)pyrimidin-4-yl)-2-methylbenzyl)-1H-pyrazole-4-carboxamide], for which the “BTK degradation (%) 1 nM” value was determined as 67.5%, the “BTK degradation (%) 10 nM” value is 94.5% and the “BTK degradation (%) 100 nM” value worked out at 98.0%.

`Cc1cc(-c2ccnc(Nc3ccc(N4CCN(CC5CN(C(=O)c6cccc(NC7CCC(=O)NC7=O)c6)C5)CC4)cc3)n2)ccc1CNC(=O)c1cnn(C(C)(C)C)c1` (stereo not drawn) [Example 96, 1-(tert-butyl)-N-(4-(2-((4-(4-((1-(3-((2,6-dioxopiperidin-3-yl)amino)benzoyl)azetidin-3-yl)methyl)piperazin-1-yl)phenyl)amino)pyrimidin-4-yl)-2-methylbenzyl)-1H-pyrazole-4-carboxamide]: the “BTK degradation (%) 1 nM” value was determined as 70.0%, the “BTK degradation (%) 10 nM” value came to 95.5% and the “BTK degradation (%) 100 nM” value is 98.0%.

On to `Cc1cc(-c2ccnc(Nc3ccc(N4CCN(CC5CCN(C(=O)c6cccc(NC7CCC(=O)NC7=O)c6)CC5)CC4)cc3)n2)ccc1CNC(=O)c1cn(C(C)(C)C)nn1` (stereo not drawn) [Example 97], for which the “BTK degradation (%) 1 nM” value worked out at 67.5%, the “BTK degradation (%) 10 nM” value was determined as 94.0% and the “BTK degradation (%) 100 nM” value turned out to be 98.5%.

Turning to `Cc1cc(-c2ccnc(Nc3ccc(N4CCN(CC5CN(C(=O)c6cccc(NC7CCC(=O)NC7=O)c6)C5)CC4)cc3)n2)ccc1CNC(=O)c1cn(C(C)(C)C)nn1` (stereo not drawn) [Example 98, 1-(tert-butyl)-N-(4-(2-((4-(4-((1-(3-((2,6-dioxopiperidin-3-yl)amino)benzoyl)azetidin-3-yl)methyl)piperazin-1-yl)phenyl)amino)pyrimidin-4-yl)-2-methylbenzyl)-1H-1,2,3-triazole-4-carboxamide], the “BTK degradation (%) 1 nM” value worked out at 71.0%, the “BTK degradation (%) 10 nM” value worked out at 95.5% and the “BTK degradation (%) 100 nM” value was 98.5%.

Regarding `Cc1cc(-c2ccnc(Nc3ccc(C4CCN(CC5CCN(C(=O)c6cccc(NC7CCC(=O)NC7=O)c6)CC5)CC4)cc3)n2)ccc1CNC(=O)N1CC(OC(C)C)C1` (stereo not drawn) [Example 99, N-(4-(2-((4-(1-((1-(3-((2,6-dioxopiperidin-3-yl)amino)benzoyl)piperidin-4-yl)methyl)piperidin-4-yl)phenyl)amino)pyrimidin-4-yl)-2-methylbenzyl)-3-isopropoxyazetidine-1-carboxamide], the “BTK degradation (%) 1 nM” value stood at 46.5%, the “BTK degradation (%) 10 nM” value stood at 92.0% and the “BTK degradation (%) 100 nM” value was determined as 98.5%.

For the compound `Cc1cc(-c2ccnc(Nc3ccc(C4CCN(CC5CN(C(=O)c6cccc(NC7CCC(=O)NC7=O)c6)C5)CC4)cc3)n2)ccc1CNC(=O)N1CC(OC(C)C)C1` (stereo not drawn) [Example 100, N-(4-(2-((4-(1-((1-(3-((2,6-dioxopiperidin-3-yl)amino)benzoyl)azetidin-3-yl)methyl)piperidin-4-yl)phenyl)amino)pyrimidin-4-yl)-2-methylbenzyl)-3-isopropoxyazetidine-1-carboxamide], the “BTK degradation (%) 1 nM” value came out at 40.5%, the “BTK degradation (%) 10 nM” value is 91.0% and the “BTK degradation (%) 100 nM” value is 98.0%.

For `Cc1cc(-c2ccnc(Nc3ccc(C4CN(CC5CCN(C(=O)c6cccc(NC7CCC(=O)NC7=O)c6)CC5)C4)cc3)n2)ccc1CNC(=O)N1CC(OC(C)C)C1` (stereo not drawn) [Example 101, N-(4-(2-((4-(1-((1-(3-((2,6-dioxopiperidin-3-yl)amino)benzoyl)piperidin-4-yl)methyl)azetidin-3-yl)phenyl)amino)pyrimidin-4-yl)-2-methylbenzyl)-3-isopropoxyazetidine-1-carboxamide], the “BTK degradation (%) 1 nM” value was determined as 50.5%, the “BTK degradation (%) 10 nM” value is 98.0% and the “BTK degradation (%) 100 nM” value is on record as 100.0%.
